Test results taken from ChEMBL document CHEMBL5260845, “Flavone-based arylamides as potential anticancers: Design, synthesis and in vitro cell-based/cell-free evaluations” (2020).
Calls of active or inactive are those of the source. The rule behind the calls is not given here.

Experiments:
NCI-H460 = experiment: Antiproliferative activity against human NCI-H460 cells assessed as cell growth inhibition at 10 uM by SRB assay; assay type: functional, cell-based
IGROV-1 = experiment: Antiproliferative activity against human IGROV-1 cells assessed as cell growth inhibition at 10 uM by SRB assay relative to control; assay type: functional
DU-145 = experiment: Antiproliferative activity against human DU-145 cells assessed as inhibition of cell growth at 10 uM by SRB assay; assay type: functional, cell-based
HCC 2998 = experiment: Antiproliferative activity against human HCC 2998 cells assessed as cell growth inhibition at 10 uM by SRB assay; assay type: functional, cell-based
NCI-H23 = experiment: Antiproliferative activity against human NCI-H23 cells assessed as cell growth inhibition at 10 uM by SRB assay; assay type: functional
SF-539 = experiment: Antiproliferative activity against human SF-539 cells assessed as cell growth inhibition at 10 uM by SRB assay relative to control; assay type: functional
U-251 = experiment: Antiproliferative activity against human U-251 cells assessed as cell growth inhibition at 10 uM by SRB assay relative to control; assay type: functional
SW-620 = experiment: Antiproliferative activity against human SW620 cells assessed as cell growth inhibition at 10 uM by SRB assay; assay type: functional, cell-based
HCT-116 = experiment: Antiproliferative activity against human HCT-116 cells assessed as cell growth inhibition at 10 uM by SRB assay; assay type: functional, cell-based
COLO 205 [1] = experiment: Antiproliferative activity against human COLO 205 cells assessed as cell growth inhibition at 10 uM by SRB assay relative to control; assay type: functional
SR = experiment: Antiproliferative activity against human SR cells assessed as cell growth inhibition at 10 uM by SRB assay; assay type: functional, cell-based
HL-60 [2] = experiment: Antiproliferative activity against human HL-60 cells assessed as cell growth inhibition at 10 uM by SRB assay; assay type: functional, cell-based
NCI-H322M = experiment: Antiproliferative activity against human NCI-H322M cells assessed as cell growth inhibition at 10 uM by SRB assay; assay type: functional, cell-based
UACC-257 = experiment: Antiproliferative activity against human UACC-257 cells assessed as cell growth inhibition at 10 uM by SRB assay relative to control; assay type: functional
Malme-3M = experiment: Antiproliferative activity against human Malme-3M cells assessed as cell growth inhibition at 10 uM by SRB assay relative to control; assay type: functional
COLO 205 [3] = experiment: Antiproliferative activity against human COLO 205 cells assessed as cell growth inhibition at 10 uM by SRB assay; assay type: functional, cell-based
SK-MEL-5 = experiment: Antiproliferative activity against human SK-MEL-5 cells assessed as cell growth inhibition at 10 uM by SRB assay relative to control; assay type: functional
NCI-H522 [4] = experiment: Antiproliferative activity against human NCI-H522 cells assessed as cell growth inhibition at 10 uM by SRB assay; assay type: functional, cell-based
UACC-62 = experiment: Antiproliferative activity against human UACC-62 cells assessed as cell growth inhibition at 10 uM by SRB assay relative to control; assay type: functional
LOX IMVI = experiment: Antiproliferative activity against human LOX IMVI cells assessed as cell growth inhibition at 10 uM by SRB assay relative to control; assay type: functional
SF-295 = experiment: Antiproliferative activity against human SF-295 cells assessed as cell growth inhibition at 10 uM by SRB assay relative to control; assay type: functional
OVCAR-8 = experiment: Antiproliferative activity against human OVCAR-8 cells assessed as cell growth inhibition at 10 uM by SRB assay relative to control; assay type: functional
K562 = experiment: Antiproliferative activity against human K562 cells assessed as cell growth inhibition at 10 uM by SRB assay; assay type: functional, cell-based
CAKI-1 = experiment: Antiproliferative activity against human CAKI-1 cells assessed as inhibition of cell growth at 10 uM by SRB assay relative to control; assay type: functional
SN12C = experiment: Antiproliferative activity against human SN12C cells assessed as inhibition of cell growth at 10 uM by SRB assay relative to control; assay type: functional
RPMI-8226 [5] = experiment: Antiproliferative activity against human RPMI-8226 cells assessed as cell growth inhibition at 10 uM by SRB assay relative to control; assay type: functional
SK-MEL-28 = experiment: Antiproliferative activity against human SK-MEL-28 cells assessed as cell growth inhibition at 10 uM by SRB assay relative to control; assay type: functional
786-0 = experiment: Antiproliferative activity against human 786-0 cells assessed as inhibition of cell growth at 10 uM by SRB assay relative to control; assay type: functional
[6] = Antiproliferative activity against human brain cancer cells assessed as cell growth inhibition at 10 uM by SRB assay relative to control; assay type: functional
[7] = Antiproliferative activity against human colon cancer cells assessed as cell growth inhibition at 10 uM by SRB assay relative to control; assay type: functional; conditions: Colon carcinoma cell
HL-60 [8] = experiment: Antiproliferative activity against human HL-60 cells assessed as cell growth inhibition at 10 uM by SRB assay relative to control; assay type: functional
HOP-62 = experiment: Antiproliferative activity against human HOP-62 cells assessed as cell growth inhibition at 10 uM by SRB assay; assay type: functional, cell-based
Lung cancer cell line = experiment: Antiproliferative activity against human lung cancer cells assessed as cell growth inhibition at 10 uM by SRB assay relative to control; assay type: functional
[9] = Antiproliferative activity against human hematologic cancer cells assessed as cell growth inhibition at 10 uM by SRB assay relative to control; assay type: functional
Breast carcinoma cell = experiment: Antiproliferative activity against human breast cancer cells assessed as cell growth inhibition at 10 uM by SRB assay relative to control; assay type: functional; conditions: pooled result: one value given for 3 cell lines, strains, targets or settings
EKVX = experiment: Antiproliferative activity against human EKVX cells assessed as cell growth inhibition at 10 uM by SRB assay; assay type: functional
MOLT-4 = experiment: Antiproliferative activity against human MOLT-4 cells assessed as cell growth inhibition at 10 uM by SRB assay; assay type: functional, cell-based
NCI-H522 [10] = experiment: Antiproliferative activity against human NCI-H522 cells assessed as cell growth inhibition at 10 uM by SRB assay relative to control; assay type: functional
MDA-MB-435 = experiment: Antiproliferative activity against human MDA-MB-435 cells assessed as cell growth inhibition at 10 uM by SRB assay relative to control; assay type: functional
Melanoma cell line = experiment: Antiproliferative activity against human melanoma cells assessed as cell growth inhibition at 10 uM by SRB assay relative to control; assay type: functional
RPMI-8226 [11] = experiment: Antiproliferative activity against human RPMI-8226 cells assessed as cell growth inhibition at 10 uM by SRB assay; assay type: functional, cell-based
Renal cancer cell line = experiment: Antiproliferative activity against human renal cancer cells assessed as cell growth inhibition at 10 uM by SRB assay relative to control; assay type: functional
A549 = experiment: Antiproliferative activity against human A549 cells assessed as cell growth inhibition at 10 uM by SRB assay; assay type: functional, cell-based
HOP-92 = experiment: Antiproliferative activity against human HOP-92 cells assessed as cell growth inhibition at 10 uM by SRB assay; assay type: functional, cell-based
HT-29 = experiment: Antiproliferative activity against human HT-29 cells assessed as cell growth inhibition at 10 uM by SRB assay; assay type: functional, cell-based

COc1cc2oc(-c3cccc(C(=O)Nc4ccc(C)cc4)c3)cc(=O)c2c(OC)c1OC
inhibition (NCI-H460): Active
inhibition at 10 µM (IGROV-1): 51.8%
inhibition (DU-145): Active
inhibition (HCC 2998): Active
inhibition (NCI-H23): Active
inhibition at 10 µM (SF-539): > 50%
inhibition at 10 µM (U-251): > 50%
inhibition (SW-620): Active
inhibition (HCT-116): Active
inhibition at 10 µM (COLO 205 [1]): 82%
inhibition (SR): Active
inhibition (HL-60 [2]): Active
inhibition (NCI-H322M): Active
inhibition at 10 µM (UACC-257): 70.1%
inhibition at 10 µM (Malme-3M): 70.1%
inhibition (COLO 205 [3]): Active
inhibition at 10 µM (SK-MEL-5): 108%
inhibition (NCI-H522 [4]): Active
inhibition at 10 µM (UACC-62): 108%
inhibition at 10 µM (LOX IMVI): 108%
inhibition at 10 µM (SF-295): 147%
inhibition at 10 µM (OVCAR-8): 51.8%
inhibition (K562): Active
inhibition at 10 µM (CAKI-1): 97.8%
inhibition at 10 µM (SN12C): 55.7%
inhibition at 10 µM (RPMI-8226 [5]): 82.6%
inhibition at 10 µM (SK-MEL-28): 92.9%
inhibition at 10 µM (786-0): 55.7%
inhibition at 10 µM [6]: 64.7%
inhibition at 10 µM [7]: 72.5%
inhibition at 10 µM (HL-60 [8]): 92.7%
inhibition (HOP-62): Active
inhibition at 10 µM (Lung cancer cell line): 66.5%
inhibition at 10 µM [9]: 72.5%
inhibition at 10 µM (Breast carcinoma cell): 53.4%
inhibition (EKVX): Active
inhibition (MOLT-4): Active
inhibition at 10 µM (NCI-H522 [10]): 93.3%
inhibition at 10 µM (MDA-MB-435): 70.1%
inhibition at 10 µM (Melanoma cell line): 95.9%
inhibition (RPMI-8226 [11]): Active
inhibition at 10 µM (Renal cancer cell line): 72.5%
inhibition (A549): Active
inhibition (HOP-92): Active
inhibition (HT-29): Active

COc1cc2oc(-c3cccc(C(=O)Nc4ccc(Cl)cc4)c3)cc(=O)c2c(OC)c1OC
inhibition (NCI-H460): Active
inhibition at 10 µM (IGROV-1): 56.9%
inhibition (DU-145): Active
inhibition (HCC 2998): Active
inhibition (NCI-H23): Active
inhibition at 10 µM (SF-539): > 50%
inhibition at 10 µM (U-251): > 50%
inhibition (SW-620): Active
inhibition (HCT-116): Active
inhibition at 10 µM (COLO 205 [1]): 98.3%
inhibition (SR): Active
inhibition (HL-60 [2]): Active
inhibition (NCI-H322M): Active
inhibition at 10 µM (UACC-257): 107%
inhibition at 10 µM (Malme-3M): 85.8%
inhibition (COLO 205 [3]): Active
inhibition at 10 µM (SK-MEL-5): 107%
inhibition (NCI-H522 [4]): Active
inhibition at 10 µM (UACC-62): 107%
inhibition at 10 µM (LOX IMVI): 97.8%
inhibition at 10 µM (SF-295): 142%
inhibition at 10 µM (OVCAR-8): 56.9%
inhibition (K562): Active
inhibition at 10 µM (CAKI-1): 91.8%
inhibition at 10 µM (SN12C): 61.4%
inhibition at 10 µM (RPMI-8226 [5]): 82.6%
inhibition at 10 µM (SK-MEL-28): 107%
inhibition at 10 µM (786-0): 88%
inhibition at 10 µM [6]: 61.5%
inhibition at 10 µM [7]: 61.5%
inhibition at 10 µM (HL-60 [8]): 111%
inhibition (HOP-62): Active
inhibition at 10 µM (Lung cancer cell line): 61.5%
inhibition at 10 µM [9]: 90%
inhibition at 10 µM (Breast carcinoma cell): 61.5%
inhibition (EKVX): Active
inhibition (MOLT-4): Active
inhibition at 10 µM (NCI-H522 [10]): 74.8%
inhibition at 10 µM (MDA-MB-435): 62.5%
inhibition at 10 µM (Melanoma cell line): 102%
inhibition (RPMI-8226 [11]): Active
inhibition at 10 µM (Renal cancer cell line): 82.9%
inhibition (A549): Active
inhibition (HOP-92): Active
inhibition (HT-29): Active
